Test results: the NIST ThermoML archive (doi:10.1021/je201297j)

Settings: Liquid, Vibrating wire viscometry

COC [dimethyl ether]
Settings	viscosity [mPa·s]
243.15 K	0.2217
248.16 K	0.2097
253.15 K	0.1988
258.14 K	0.1889
263.15 K	0.1796
268.14 K	0.1709
273.14 K	0.1628
278.13 K	0.1552
283.14 K	0.1479
288.14 K	0.1414
293.14 K	0.1351
298.14 K	0.129
303.14 K	0.124
308.14 K	0.1181
313.14 K	0.1129
318.12 K	0.108
323.12 K	0.1031
328.12 K	0.09861
333.13 K	0.09419
338.13 K	0.08983
343.13 K	0.08575
348.13 K	0.08166
353.12 K	0.07777
358.13 K	0.07388
363.13 K	0.07014
368.13 K	0.06636
373.13 K	0.06256

viscosity [mPa·s]
Settings	5000 kPa	10000 kPa	15000 kPa	20000 kPa	25000 kPa	30000 kPa
253.15 K	0.2044	0.2125	0.2199	0.2314	0.2421	0.2541
263.15 K	0.1836	0.1911	0.1989	0.2068	0.2156	0.2252
273.14 K	0.1669	0.1742	0.1816	0.189	0.196	0.2035
283.14 K	0.1521	0.159	0.1657	0.1724	0.1791	0.1857
293.14 K	0.1395	0.1455	0.1527	0.1586	0.1652	0.1709
303.14 K	0.1276	0.134	0.1401	0.1464	0.1521	0.1584
313.14 K	0.1165	0.1235	0.1294	0.1355	0.1415	0.1473
323.12 K	0.107	0.1139	0.1199	0.1262	0.1316	0.137
333.12 K	0.09797	0.1049	0.1111	0.117	0.1231	0.1284
343.13 K	0.08951	0.09664	0.1036	0.1096	0.1151	0.1204
353.12 K	0.08119	0.08899	0.0959	0.1017	0.1075	0.1127
363.13 K	–	0.08181	0.08877	0.09499	0.101	0.1066
373.13 K	0.06522	0.07506	0.08237	0.08883	0.09475	0.09991
